From article PMC7316994, “In Vitro Pharmacological Profile of a New Small Molecule Bradykinin B2 Receptor Antagonist” (Frontiers in Pharmacology, 2020)

Columns and labels:
Muscarinic M2 = Muscarinic M2 (Homo sapiens, UniProt P08172); experiment: radioligand binding (Table S2); conditions: read-out: % Inhibition @ 10 µM
PKCε = target: T1, PKCε (Homo sapiens, UniProt Q02156); experiment: enzyme assay (Table S2); assay type: biochemical; conditions: HTRF
T1 construct: host or cells: insect cells

Muscarinic M4 = Muscarinic M4 (Homo sapiens, UniProt P08173); experiment: radioligand binding (Table S2); conditions: read-out: % Inhibition @ 10 µM
Melatonin MT2 (ML1B) = target: T2, Melatonin MT2 (ML1B) (Homo sapiens, UniProt P49286); experiment: radioligand binding (Table S2); conditions: [125I] 2-iodomelatonin, Human recombinant CHO cells
T2 construct: host or cells: CHO cells
T2 sequence (P49286 whole entry): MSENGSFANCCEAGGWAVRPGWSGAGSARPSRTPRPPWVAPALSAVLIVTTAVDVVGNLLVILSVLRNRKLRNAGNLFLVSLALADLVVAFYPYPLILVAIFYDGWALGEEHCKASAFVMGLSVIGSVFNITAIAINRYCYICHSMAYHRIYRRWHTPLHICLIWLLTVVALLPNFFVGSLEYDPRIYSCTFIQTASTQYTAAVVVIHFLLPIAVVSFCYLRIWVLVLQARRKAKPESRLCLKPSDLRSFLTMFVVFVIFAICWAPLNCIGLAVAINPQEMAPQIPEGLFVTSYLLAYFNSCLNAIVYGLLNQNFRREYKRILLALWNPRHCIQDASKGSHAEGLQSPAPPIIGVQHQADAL

Dopamine D3 = target: T3, Dopamine D3 (Homo sapiens, UniProt P35462); experiment: radioligand binding (Table S2); conditions: [3H] Methylspiperone, Human recombinant CHO cells
T3 construct: host or cells: CHO cells
T3 sequence (P35462 whole entry): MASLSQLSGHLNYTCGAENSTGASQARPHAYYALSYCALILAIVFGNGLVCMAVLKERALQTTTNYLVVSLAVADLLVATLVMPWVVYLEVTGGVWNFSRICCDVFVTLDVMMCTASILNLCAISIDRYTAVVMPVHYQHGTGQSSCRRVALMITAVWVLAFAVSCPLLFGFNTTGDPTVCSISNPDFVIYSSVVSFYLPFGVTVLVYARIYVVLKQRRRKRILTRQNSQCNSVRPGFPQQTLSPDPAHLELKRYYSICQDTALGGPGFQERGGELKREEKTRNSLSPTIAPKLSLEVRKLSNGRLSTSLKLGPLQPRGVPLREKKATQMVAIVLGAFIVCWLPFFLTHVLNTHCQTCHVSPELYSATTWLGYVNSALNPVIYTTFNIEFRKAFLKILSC

Serotonin 5-HT1B = target: T4, Serotonin 5-HT1B (Rattus norvegicus, UniProt P28564); experiment: radioligand binding (Table S2); conditions: [125I] CYP (+ 30 µM isoproterenol), Rat cerebral cortex
T4 construct: tissue Eurofins; host or cells: rat cerebral cortex
T4 sequence (P28564 whole entry): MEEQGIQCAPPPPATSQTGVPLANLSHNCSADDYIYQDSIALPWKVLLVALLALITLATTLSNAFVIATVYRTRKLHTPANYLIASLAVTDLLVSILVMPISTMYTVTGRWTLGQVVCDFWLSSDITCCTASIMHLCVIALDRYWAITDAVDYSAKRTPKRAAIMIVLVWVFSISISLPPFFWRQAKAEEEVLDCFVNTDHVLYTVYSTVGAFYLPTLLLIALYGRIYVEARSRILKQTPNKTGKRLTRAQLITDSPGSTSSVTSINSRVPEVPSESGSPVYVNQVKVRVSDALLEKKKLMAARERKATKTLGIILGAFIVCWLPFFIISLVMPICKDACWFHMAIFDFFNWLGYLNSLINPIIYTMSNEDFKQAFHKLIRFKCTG

human myc-B2 receptor = target: T5, human myc-B2 receptor (Homo sapiens, UniProt P30411); experiment: c-Fos immunoblot, HEK 293a cells stably expressing myc-B2 receptor; assay type: cell-based; conditions: BK 10 nM
T5 construct: expressed in transfected cells
T5 sequence (P30411 1-391): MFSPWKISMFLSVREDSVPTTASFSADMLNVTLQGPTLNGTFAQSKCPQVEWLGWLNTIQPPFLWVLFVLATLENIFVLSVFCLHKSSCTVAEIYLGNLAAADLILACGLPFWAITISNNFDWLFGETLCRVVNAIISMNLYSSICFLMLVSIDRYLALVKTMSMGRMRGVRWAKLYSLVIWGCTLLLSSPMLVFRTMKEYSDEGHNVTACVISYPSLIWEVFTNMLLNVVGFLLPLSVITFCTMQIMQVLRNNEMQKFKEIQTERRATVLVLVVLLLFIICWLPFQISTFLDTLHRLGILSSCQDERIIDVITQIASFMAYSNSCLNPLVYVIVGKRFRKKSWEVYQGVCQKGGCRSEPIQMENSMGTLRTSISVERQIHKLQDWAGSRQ
Description: Supplementary Methods: Immunoblots for c-Fos signaling
The construction of myc-tagged B2 receptor expression vector containing the human receptor sequence has been recently reported, as well as the derivation of HEK293a cell lines that stably express the construction (Charest-Morin et al., 2015). Immunoblotting experiments, conducted as described (Koumbadinga et al., 2010), were used to study the effect of selected antagonists on BK-induced signaling. Briefly, HEK 293a cells stably expressing the human myc-B2 receptor were stimulated with BK agonists for 60 min at 37°C, with or without a pretreatment with the antagonist (applied 15 min before BK). Total cell extracts were immunoblotted to detect c-Fos expression using the K-25 rabbit polyclonal antibodies (Santa Cruz Biotechnology, Dallas, TX; dilution 1:50,000). In these experiments, β-actin was used as a loading control and was detected using the monoclonal anti-β-actin antibody, clone AC-15 (Sigma-Aldrich; dilution 1:50,000).

[1] = target: Cholecystokinin CCK2 (CCKB) (Homo sapiens, UniProt P32239); experiment: radioligand binding (Table S2); conditions: [125I] CCK-8, Human recombinant Chem-1 cells
Melanocortin MC4 = target: T6, Melanocortin MC4 (Homo sapiens, UniProt P32245); experiment: radioligand binding (Table S2); conditions: [125I] NDP-α-MSH, Human recombinant CHO cells
T6 construct: host or cells: CHO cells
T6 sequence (P32245 whole entry): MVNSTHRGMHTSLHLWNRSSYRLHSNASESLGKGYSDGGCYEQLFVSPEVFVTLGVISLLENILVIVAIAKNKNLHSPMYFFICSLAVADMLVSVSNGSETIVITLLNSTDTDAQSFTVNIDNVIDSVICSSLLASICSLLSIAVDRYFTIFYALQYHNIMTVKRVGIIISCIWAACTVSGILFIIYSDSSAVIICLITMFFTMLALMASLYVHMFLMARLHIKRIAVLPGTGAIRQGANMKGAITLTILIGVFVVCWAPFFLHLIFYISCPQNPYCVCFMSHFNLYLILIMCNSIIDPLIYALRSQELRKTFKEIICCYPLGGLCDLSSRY

Histamine H3 = target: T7, Histamine H3 (Homo sapiens, UniProt Q9Y5N1); experiment: radioligand binding (Table S2); conditions: [3H] Nα-Me-histamine, Human recombinant CHO cells
T7 construct: host or cells: CHO cells
T7 sequence (Q9Y5N1 whole entry): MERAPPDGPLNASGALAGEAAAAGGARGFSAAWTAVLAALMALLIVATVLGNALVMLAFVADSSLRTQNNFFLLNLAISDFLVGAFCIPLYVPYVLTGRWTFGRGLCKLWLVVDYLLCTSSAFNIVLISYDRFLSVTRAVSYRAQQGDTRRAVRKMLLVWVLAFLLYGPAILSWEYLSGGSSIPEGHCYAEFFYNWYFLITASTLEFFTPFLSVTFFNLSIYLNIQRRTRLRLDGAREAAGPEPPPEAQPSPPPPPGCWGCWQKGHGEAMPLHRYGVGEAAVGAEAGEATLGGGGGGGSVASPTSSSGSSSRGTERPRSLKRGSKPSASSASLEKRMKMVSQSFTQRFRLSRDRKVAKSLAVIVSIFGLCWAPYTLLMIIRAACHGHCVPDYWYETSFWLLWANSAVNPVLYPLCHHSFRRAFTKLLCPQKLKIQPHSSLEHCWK

Galanin GAL2 = target: T8, Galanin GAL2 (Homo sapiens, UniProt O43603); experiment: radioligand binding (Table S2); conditions: [125I] Galanin, Human recombinant CHO cells
T8 construct: host or cells: CHO cells
T8 sequence (O43603 whole entry): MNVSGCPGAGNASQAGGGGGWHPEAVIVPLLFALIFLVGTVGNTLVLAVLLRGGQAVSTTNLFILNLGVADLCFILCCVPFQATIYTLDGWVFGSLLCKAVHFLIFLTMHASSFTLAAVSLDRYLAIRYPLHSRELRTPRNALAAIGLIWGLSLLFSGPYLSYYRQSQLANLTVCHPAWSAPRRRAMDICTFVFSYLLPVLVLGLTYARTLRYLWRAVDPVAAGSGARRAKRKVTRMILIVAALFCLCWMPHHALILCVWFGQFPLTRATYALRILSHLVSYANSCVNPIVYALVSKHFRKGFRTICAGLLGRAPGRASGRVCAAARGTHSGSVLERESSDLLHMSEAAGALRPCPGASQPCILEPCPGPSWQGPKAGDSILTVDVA

Adrenergic α2A = Adrenergic α2A (Homo sapiens, UniProt P08913); experiment: radioligand binding (Table S2); conditions: read-out: % Inhibition @ 10 µM
[2] = target: T9, Vasoactive intestinal peptide VPAC1 (VIP1) (Homo sapiens, UniProt P32241); experiment: radioligand binding (Table S2); conditions: [125I] VIP, Human recombinant CHO cells
T9 construct: host or cells: CHO cells

Melatonin MT1 (ML1A) = target: T10, Melatonin MT1 (ML1A) (Homo sapiens, UniProt P48039); experiment: radioligand binding (Table S2); conditions: [125I] 2-iodomelatonin, Human recombinant CHO cells
T10 construct: host or cells: CHO cells

Chemokine CXCR4 = Chemokine CXCR4 (Homo sapiens, UniProt P61073); experiment: radioligand binding (Table S2); conditions: [125I] SDF-1α, Human recombinant Chem-1 cells
Melanocortin MC5 = target: T11, Melanocortin MC5 (Homo sapiens, UniProt P33032); experiment: radioligand binding (Table S2); conditions: [125I] NDP-α-MSH, Human recombinant CHO cells
T11 construct: host or cells: CHO cells

Potassium channel hERG = Potassium channel hERG (Homo sapiens, UniProt Q12809); experiment: in vitro
Sequence of Potassium channel hERG (Q12809 whole entry): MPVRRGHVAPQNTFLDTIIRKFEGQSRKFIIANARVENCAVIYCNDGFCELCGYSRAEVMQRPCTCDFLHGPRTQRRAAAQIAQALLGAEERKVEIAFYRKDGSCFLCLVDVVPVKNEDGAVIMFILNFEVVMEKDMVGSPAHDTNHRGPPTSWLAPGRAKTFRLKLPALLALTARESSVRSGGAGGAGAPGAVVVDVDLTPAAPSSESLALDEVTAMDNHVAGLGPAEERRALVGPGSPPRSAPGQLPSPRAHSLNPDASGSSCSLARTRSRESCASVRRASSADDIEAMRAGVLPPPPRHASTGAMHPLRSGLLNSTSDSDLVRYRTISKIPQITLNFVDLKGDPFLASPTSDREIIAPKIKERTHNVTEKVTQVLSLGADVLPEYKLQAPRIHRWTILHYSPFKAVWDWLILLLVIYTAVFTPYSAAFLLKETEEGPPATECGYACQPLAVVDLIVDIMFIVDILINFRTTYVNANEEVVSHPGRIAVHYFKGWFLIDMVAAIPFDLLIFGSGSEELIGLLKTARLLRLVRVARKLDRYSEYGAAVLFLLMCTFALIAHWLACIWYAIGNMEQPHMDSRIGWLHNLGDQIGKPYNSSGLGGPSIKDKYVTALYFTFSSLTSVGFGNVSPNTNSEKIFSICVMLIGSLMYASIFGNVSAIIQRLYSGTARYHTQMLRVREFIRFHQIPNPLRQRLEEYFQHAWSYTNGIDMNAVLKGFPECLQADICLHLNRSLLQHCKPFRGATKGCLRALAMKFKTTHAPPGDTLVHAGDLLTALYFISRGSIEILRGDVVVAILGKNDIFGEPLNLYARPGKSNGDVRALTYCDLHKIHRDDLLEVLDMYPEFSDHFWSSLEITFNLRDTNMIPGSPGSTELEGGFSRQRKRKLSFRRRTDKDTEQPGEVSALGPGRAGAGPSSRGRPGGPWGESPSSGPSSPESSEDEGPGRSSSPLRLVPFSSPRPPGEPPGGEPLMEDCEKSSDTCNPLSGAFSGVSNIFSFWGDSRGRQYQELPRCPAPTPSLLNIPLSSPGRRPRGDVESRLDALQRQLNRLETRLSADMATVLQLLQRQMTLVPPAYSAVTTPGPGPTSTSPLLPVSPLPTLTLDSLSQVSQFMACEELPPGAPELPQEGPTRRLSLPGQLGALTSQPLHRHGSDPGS

Dopamine D4.2 = target: T12, Dopamine D4.2 (Homo sapiens, UniProt P21917, DEL265-296); experiment: radioligand binding (Table S2); conditions: [3H] Spiperone, Human recombinant CHO-K1 cells
T12 construct: host or cells: CHO-K1 cells
T12 sequence (P21917 with tags, fused parts or gaps DEL265-296): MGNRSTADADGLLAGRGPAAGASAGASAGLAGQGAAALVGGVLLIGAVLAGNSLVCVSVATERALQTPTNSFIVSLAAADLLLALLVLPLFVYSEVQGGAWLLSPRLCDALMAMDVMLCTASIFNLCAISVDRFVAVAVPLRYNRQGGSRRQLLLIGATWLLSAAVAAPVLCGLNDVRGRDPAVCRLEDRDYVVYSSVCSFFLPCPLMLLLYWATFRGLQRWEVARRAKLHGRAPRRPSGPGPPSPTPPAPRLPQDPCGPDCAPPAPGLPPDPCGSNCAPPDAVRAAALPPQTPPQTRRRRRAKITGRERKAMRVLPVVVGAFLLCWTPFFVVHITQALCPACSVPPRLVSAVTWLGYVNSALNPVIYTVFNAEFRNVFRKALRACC

[3] = target: T13, Thyrotropin-releasing hormone TRH1 (Homo sapiens, UniProt P34981); experiment: radioligand binding (Table S2); conditions: [3H] Me-TRH, Human recombinant CHO cells
T13 construct: host or cells: CHO cells
T13 sequence (P34981 whole entry): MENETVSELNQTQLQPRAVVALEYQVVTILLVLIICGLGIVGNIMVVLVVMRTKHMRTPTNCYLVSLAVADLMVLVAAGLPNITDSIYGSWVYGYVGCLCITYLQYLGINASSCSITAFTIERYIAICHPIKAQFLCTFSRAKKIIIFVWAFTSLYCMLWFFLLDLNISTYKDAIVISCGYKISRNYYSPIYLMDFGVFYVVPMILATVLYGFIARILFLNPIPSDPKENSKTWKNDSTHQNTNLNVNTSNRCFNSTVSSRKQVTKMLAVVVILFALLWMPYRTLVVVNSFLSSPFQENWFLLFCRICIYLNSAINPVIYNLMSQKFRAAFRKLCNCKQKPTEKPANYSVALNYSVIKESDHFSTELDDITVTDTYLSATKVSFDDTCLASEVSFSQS

T1 sequence (Q02156 whole entry): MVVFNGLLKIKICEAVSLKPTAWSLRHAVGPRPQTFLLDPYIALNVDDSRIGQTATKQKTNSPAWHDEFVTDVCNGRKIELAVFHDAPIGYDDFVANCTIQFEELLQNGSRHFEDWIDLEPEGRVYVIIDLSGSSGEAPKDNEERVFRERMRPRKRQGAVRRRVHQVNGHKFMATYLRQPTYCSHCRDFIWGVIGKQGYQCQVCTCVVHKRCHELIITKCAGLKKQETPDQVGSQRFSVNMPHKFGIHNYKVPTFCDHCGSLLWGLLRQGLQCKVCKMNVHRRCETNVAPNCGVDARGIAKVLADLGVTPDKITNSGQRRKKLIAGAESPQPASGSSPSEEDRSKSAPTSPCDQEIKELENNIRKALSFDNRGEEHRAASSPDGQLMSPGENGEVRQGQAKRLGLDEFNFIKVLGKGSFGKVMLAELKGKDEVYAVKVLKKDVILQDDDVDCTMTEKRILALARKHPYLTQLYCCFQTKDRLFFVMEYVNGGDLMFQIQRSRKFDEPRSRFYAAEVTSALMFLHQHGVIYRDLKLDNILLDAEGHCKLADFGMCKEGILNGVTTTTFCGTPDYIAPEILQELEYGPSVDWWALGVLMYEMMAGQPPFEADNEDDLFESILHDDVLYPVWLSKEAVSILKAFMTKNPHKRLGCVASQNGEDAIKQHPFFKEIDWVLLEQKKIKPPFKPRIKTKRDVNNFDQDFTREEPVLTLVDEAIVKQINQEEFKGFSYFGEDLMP

SMILES: Cc1cc(-c2ncnn2C)c2cccc(OCc3c(Cl)cc(F)cc3[C@H](C)NC(=O)COC(F)F)c2n1 [Compound 3, (S)-N-(1-(3-chloro-5-fluoro-2-((2-methyl-4-(1-methyl-1H-1,2,4-triazol-5-yl)quinolin-8-yloxy)methyl)phenyl)ethyl)-2-(difluoromethoxy)acetamide]
- inhibition at 10 µM (Muscarinic M2): -12.4%
- inhibition at 10 µM (PKCε): 6.8%
- inhibition at 10 µM (Muscarinic M4): -1.3%
- inhibition at 10 µM (Melatonin MT2 (ML1B)): 4.8%
- inhibition at 10 µM (Dopamine D3): 4.8%
- inhibition at 10 µM (Serotonin 5-HT1B): -2.5%
- antagonist concentration that significantly reduced the c-Fos response to BK (human myc-B2 receptor; 60 min): significant effect at equimolar concentration
- effect on BK-induced c-Fos accumulation (human myc-B2 receptor; co-treatment between 10 nM and 1 μM): inhibited this response in a concentration-dependent manner
- inhibition at 10 µM [1]: 1%
- inhibition at 10 µM (Melanocortin MC4): 7.1%
- inhibition at 10 µM (Histamine H3): 6.2%
- inhibition at 10 µM (Galanin GAL2): 6.2%
- inhibition at 10 µM (Adrenergic α2A): -1.7%
- inhibition at 10 µM [2]: 0.8%
- inhibition at 10 µM (Melatonin MT1 (ML1A)): 15.3%
- inhibition at 10 µM (Chemokine CXCR4): 10%
- inhibition at 10 µM (Melanocortin MC5): -9.6%
- inhibition at 60 min, 10 µM (Potassium channel hERG): 17.8%
- inhibition at 10 µM (Dopamine D4.2): 2%
- inhibition at 10 µM [3]: 21.7%
